From publication PMC8217813, “Bridging Computational Vaccinology and Vaccine Development Through Systematic Identification, Characterization, and Downselection of Conserved and Variable Circumsporozoite Protein CD4 T Cell Epitopes From Diverse Plasmodium falciparum Strains” (Frontiers in Immunology, 2021)
Peptide text beside a SMILES is read from it.

molecular target: T1, HLA A*0201 (Homo sapiens, UniProt P04439, D140Y/D185E/D98H/E176V/E277Q/G131W/G231S/I119V/I121R/I166T/I218V/L300P/L318F/N151K/N90K/P208A/P217A/Q86G/Q94H/R138H/R169H/T345S); assay: biochemical; format: binding; settings: not given
T1 construct: Pure Protein, LLC (ran the assay)

Row | Molecule | IC50 [µM]
1 | CC[C@H](C)[C@H](NC(=O)[C@H](CCCCN)NC(=O)[C@H](CC(C)C)NC(=O)[C@@H](N)Cc1ccc(O)cc1)C(=O)N[C@H](C(=O)N[C@@H](CCC(N)=O)C(=O)N[C@@H](CC(N)=O)C(=O)N[C@@H](CO)C(=O)N[C@@H](CC(C)C)C(=O)O)[C@@H](C)CC [Cluster 319_ICS5] (H-YLKIIQNSL-OH) | 4.88
2 | CC[C@H](C)[C@H](NC(=O)[C@H](CCCCN)NC(=O)[C@H](CCCCN)NC(=O)[C@H](CC(C)C)NC(=O)[C@@H](N)Cc1ccc(O)cc1)C(=O)N[C@@H](CCC(N)=O)C(=O)N[C@@H](Cc1ccc(O)cc1)C(=O)N[C@@H](CO)C(=O)N[C@@H](CC(C)C)C(=O)O [Cluster 319_ICS7] (H-YLKKIQYSL-OH) | 2.58

same assay, conditions: allele A0201; cell-free competition with fluorescently labeled control peptide, fluorescence polarization at 72 hours

Row | Molecule | IC50 (nM)
3 | CKMEKCSSV [369_3D7 (9)] | Non-Binder

same assay, conditions: allele A0201; cell-free competition with fluorescently labeled control peptide, fluorescence polarization at 72 hours; read-out: IC50

Row | Molecule | IC50 [µM]
4 | CC(C)C[C@H](N)C(=O)N[C@@H](CO)C(=O)N[C@H](C(=O)N[C@@H](CCC(=O)O)C(=O)N[C@@H](Cc1c[nH]c2ccccc12)C(=O)N[C@@H](CO)C(=O)N1CCC[C@H]1C(=O)N[C@@H](CS)C(=O)N[C@@H](CO)C(=O)N[C@H](C(=O)O)C(C)C)[C@@H](C)O [327_3D7 (10)] (H-LSTEWSPCSV-OH) | 4.38
5 | CC[C@H](C)[C@H](NC(=O)[C@H](CCCCN)NC(=O)[C@H](CC(N)=O)NC(=O)[C@H](CC(C)C)NC(=O)[C@H](Cc1ccc(O)cc1)NC(=O)[C@H](CCC(=O)O)NC(=O)[C@H](CCCCN)NC(=O)[C@@H](NC(=O)[C@@H](N)Cc1c[nH]cn1)[C@@H](C)CC)C(=O)O [Cluster 315_3D7] (H-HIKEYLNKI-OH) | 259

molecular target: HLA B*4402 (Homo sapiens, UniProt P01889, A223V/A65T/A93T/A95T/D201E/D98Y/E176V/E187L/E204Q/E69K/G107R/H137Y/K202T/L105A/L119I/N104T/N87E/Q56L/Q94N/R106L/R155S/R180D/S101N/S121R/S35A/S48T/T118I/V36M/W191S/Y140D/Y91S); assay: In vitro class I HLA binding competition assay (fluorescence polarization); settings: allele B4402; cell-free competition with fluorescently labeled control peptide, fluorescence polarization at 72 hours
Protocol: The cell-free class I HLA binding assay in use at Pure Protein, LLC allows for in vitro quantification of peptide-HLA binding affinity in a competition format. In this assay, a fluorescently labeled, high binding, control peptide is loaded onto 384-well ½-area plates along with unlabeled experimental peptides. To remove endogenous peptides and render the HLA A and B molecules receptive to binding, HLA is heated at 53°C for 15 minutes and immediately added to the assay. The mixture is then allowed to stand for three days. Once the mixture has reached steady equilibrium (at 72 hours), displacement of the high binding control peptide is measured through Fluorescence Polarization. Binding of experimental peptides is expressed as the percent inhibition of the labeled control peptide (experimental fluorescence / control fluorescence, multiplied by 100). The percent inhibition values for each experimental peptide (across a range of molar concentrations) are used to calculate the concentration which inhibits 50% of the labeled control peptide’s specific binding. This value is referred to as the peptide’s IC50.

Row | Molecule | IC50 (nM) | IC50 [µM]
6 | NEEPSDKHI [308_3D7(9)] | Non-Binder | –
7 | CSCC[C@H](N)C(=O)N[C@@H](CCC(=O)O)C(=O)N[C@@H](CCCCN)C(=O)N[C@@H](CS)C(=O)N[C@@H](CO)C(=O)N[C@@H](CO)C(=O)N[C@H](C(=O)N[C@@H](Cc1ccccc1)C(=O)N[C@@H](CC(N)=O)C(=O)O)C(C)C [Cluster 371_3D7] (H-MEKCSSVFN-OH) | – | 143
8 | CSCC[C@H](N)C(=O)N1CCC[C@H]1C(=O)N[C@@H](CC(N)=O)C(=O)N[C@@H](CC(=O)O)C(=O)N1CCC[C@H]1C(=O)N[C@@H](CC(N)=O)C(=O)N[C@@H](CCCNC(=N)N)C(=O)N[C@@H](CC(N)=O)C(=O)N[C@H](C(=O)O)C(C)C [Cluster 285_3D7] | Non-Binder | –
9 | KDELDYENDI [Cluster 355_CVX124] | Non-Binder | –
10 | CC[C@H](C)[C@H](NC(=O)[C@H](CC(=O)O)NC(=O)[C@H](CC(N)=O)NC(=O)[C@H](C)NC(=O)[C@H](Cc1ccc(O)cc1)NC(=O)[C@H](CC(=O)O)NC(=O)[C@H](CC(C)C)NC(=O)[C@H](CCC(=O)O)NC(=O)[C@@H](N)CC(=O)O)C(=O)O [Cluster 356_3D7] (H-DELDYANDI-OH) | – | 277
11 | NEEPSDKHIK [308_3D7 (10)] | Non-Binder | –
12 | NEEPSDQHI [Cluster 308_CVX99] | Non-Binder | –
13 | CC[C@H](C)[C@H](NC(=O)[C@H](CCCCN)NC(=O)[C@H](CCCCN)NC(=O)[C@H](CCC(=O)O)NC(=O)[C@@H](NC(=O)[C@H](CC(=O)O)NC(=O)[C@H](CC(N)=O)NC(=O)[C@H](CCC(=O)O)NC(=O)[C@@H](N)Cc1ccc(O)cc1)[C@@H](C)CC)C(=O)O [Cluster 360_CVX298] (H-YENDIEKKI-OH) | – | 7.36
14 | TEWSPCSVT [Cluster 329_3D7] | Non-Binder | –
15 | DENANANSA [Cluster 294_3D7] | Non-Binder | –
16 | C[C@H](NC(=O)[C@H](CC(N)=O)NC(=O)[C@H](CC(N)=O)NC(=O)[C@H](C)NC(=O)[C@H](CC(N)=O)NC(=O)[C@H](C)NC(=O)[C@H](CC(N)=O)NC(=O)[C@H](CCC(=O)O)NC(=O)[C@@H](N)CC(=O)O)C(=O)O [Cluster 294_CVX311] (H-DENANANNA-OH) | – | 896
17 | CC[C@H](C)[C@H](N)C(=O)N[C@@H](CCC(=O)O)C(=O)N[C@@H](CCC(N)=O)C(=O)N[C@@H](Cc1ccc(O)cc1)C(=O)N[C@@H](CC(C)C)C(=O)N[C@@H](CCCCN)C(=O)N[C@@H](CCCCN)C(=O)N[C@H](C(=O)N[C@@H](CCC(N)=O)C(=O)N[C@@H](Cc1ccc(O)cc1)C(=O)O)[C@@H](C)CC [Cluster 316_ICS7] (H-IEQYLKKIQY-OH) | – | 157
18 | TEYLKKIQN [Cluster 317_ICS2] | Non-Binder | –
19 | KEYLNKIQNS [Cluster 317_3D7] | Non-Binder | –

molecular target: T2, HLA A*0101 (Homo sapiens, UniProt P04439, A114D/A174V/A182V/D101N/D185E/E176A/E190D/L180R/Q94H/R68K/S129P/T187R/V100A/V91M/W191G); assay: biochemical; format: binding; settings: allele A0101; cell-free competition with fluorescently labeled control peptide, fluorescence polarization at 72 hours
T2 construct: Pure Protein, LLC (ran the assay)

Row | Molecule | IC50 (nM)
20 | NEEPSDKHIK [308_3D7 (10)] | Non-Binder
21 | CC[C@H](C)[C@H](N)C(=O)N[C@@H](CCC(=O)O)C(=O)N[C@@H](CCC(N)=O)C(=O)N[C@@H](Cc1ccc(O)cc1)C(=O)N[C@@H](CC(C)C)C(=O)N[C@@H](CCCCN)C(=O)N[C@@H](CCCCN)C(=O)N[C@H](C(=O)N[C@@H](CCC(N)=O)C(=O)N[C@@H](Cc1ccc(O)cc1)C(=O)O)[C@@H](C)CC [Cluster 316_ICS7] (H-IEQYLKKIQY-OH) | Non-Binder

molecular target: T3, HLA B*0702 (Homo sapiens, UniProt P01889); assay: biochemical; format: binding; settings: allele B0702; cell-free competition with fluorescently labeled control peptide, fluorescence polarization at 72 hours; read-out: IC50
T3 construct: Pure Protein, LLC (ran the assay)

Row | Molecule | IC50 [µM]
22 | CSCC[C@H](N)C(=O)N1CCC[C@H]1C(=O)N[C@@H](CC(N)=O)C(=O)N[C@@H](CC(=O)O)C(=O)N1CCC[C@H]1C(=O)N[C@@H](CC(N)=O)C(=O)N[C@@H](CCCNC(=N)N)C(=O)N[C@@H](CC(N)=O)C(=O)N[C@H](C(=O)O)C(C)C [Cluster 285_3D7] | 511
